This is an account of results in patent US20120088759A1, “THIAZOLIDIN-4-ONE AND [1,3]-THIAZINAN-4-ONE COMPOUNDS AS OREXIN RECEPTOR ANTAGONISTS” (priority 2009, published 2012).

The subject of assay [1] is rat. As to conditions: rat model; cited from earlier work.
Assay [2] concerns rat. As to conditions: cited from earlier work.
Assay [3] deals with rat. As to conditions: cited from earlier work. This is another data set of the same source.
In the next assay the target is T1, human orexin-2 receptor (Homo sapiens, UniProt O43614).
T1 construct: expressed in transfected cells; host or cells: CHO (Chinese hamster ovary) cells, kept under G418
T1 sequence (O43614 1-444): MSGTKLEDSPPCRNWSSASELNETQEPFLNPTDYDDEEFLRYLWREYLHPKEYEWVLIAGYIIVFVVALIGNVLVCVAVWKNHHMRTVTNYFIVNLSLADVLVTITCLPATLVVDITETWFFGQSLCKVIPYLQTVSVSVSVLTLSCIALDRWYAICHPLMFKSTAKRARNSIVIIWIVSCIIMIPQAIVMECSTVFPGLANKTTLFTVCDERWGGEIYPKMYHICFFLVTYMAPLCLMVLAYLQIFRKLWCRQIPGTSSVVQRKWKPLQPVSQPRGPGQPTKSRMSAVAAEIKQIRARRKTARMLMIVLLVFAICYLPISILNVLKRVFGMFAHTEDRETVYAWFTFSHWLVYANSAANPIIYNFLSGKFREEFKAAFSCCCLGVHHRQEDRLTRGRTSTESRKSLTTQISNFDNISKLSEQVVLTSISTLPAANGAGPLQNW
The assay can be described thus: FLIPR intracellular calcium assay, orexin receptor antagonistic activity (OX2). It counts as cell-based. As to conditions: CHO cells expressing human orexin-2 receptor; 3 nM orexin-A; normalized to on-plate reference; *n = geometric mean from n values. On the procedure: (§1) The orexin receptor antagonistic activity of the compounds of formula (I) is determined in accordance with the following experimental method.
(§2) Chinese hamster ovary (CHO) cells expressing the human orexin-1 receptor and the human orexin-2 receptor, respectively, are grown in culture medium (Ham F-12 with L-Glutamine) containing 300 μg/ml G418, 100 U/ml penicillin, 100 μg/ml streptomycin and 10% heat inactivated fetal calf serum (FCS). The cells are seeded at 20′000 cells/well into 384-well black clear bottom sterile plates (Greiner). The seeded plates are incubated overnight at 37° C. in 5% CO2.
(§3) Human orexin-A as an agonist is prepared as 1 mM stock solution in MeOH:water (1:1), diluted in HBSS containing 0.1% bovine serum albumin (BSA), NaHCO3: 0.375 g/l and 20 mM HEPES for use in the assay at a final concentration of 3 nM.
(§4) Antagonists are prepared as 10 mM stock solution in DMSO, then diluted in 384-well plates using DMSO followed by a transfer of the dilutions into in HBSS containing 0.1% bovine serum albumin (BSA), NaHCO3: 0.375 g/l and 20 mM HEPES. On the day of the assay, 50 μl of staining buffer (HBSS containing 1% FCS, 20 mM HEPES, NaHCO3: 0.375 g/l, 5 mM probenecid (Sigma) and 3 μM of the fluorescent calcium indicator fluo-4 AM (1 mM stock solution in DMSO, containing 10% pluronic) is added to each well. The 384-well cell-plates are incubated for 50 min at 37° C. in 5% CO2 followed by equilibration at rt for 30-120 min before measurement.
(§5) Within the Fluorescent Imaging Plate Reader (FLIPR Tetra, Molecular Devices), antagonists are added to the plate in a volume of 10 μl/well, incubated for 10 min and finally 10 μl/well of agonist is added. Fluorescence is measured for each well at 1 second intervals, and the height of each fluorescence peak is compared to the height of the fluorescence peak induced by 3 nM orexin-A with vehicle in place of antagonist. For each antagonist, the IC50 value (the concentration of compound needed to inhibit 50% of the agonistic response) is determined and normalized using the obtained IC50 value of a on-plate reference compound. Optimized conditions were achieved by adjustment of pipetting speed and cell splitting regime. The calculated IC50 values of the compounds may fluctuate depending on the daily cellular assay performance. Fluctuations of this kind are known to those skilled in the art.
(In general: Calcium flux is commonly read through the fluorescence of an indicator in the cells.)

Another assay addresses T2, human orexin-1 receptor (Homo sapiens, UniProt O43613).
T2 construct: expressed in transfected cells; host or cells: CHO (Chinese hamster ovary) cells, kept under G418
T2 sequence (O43613 1-425): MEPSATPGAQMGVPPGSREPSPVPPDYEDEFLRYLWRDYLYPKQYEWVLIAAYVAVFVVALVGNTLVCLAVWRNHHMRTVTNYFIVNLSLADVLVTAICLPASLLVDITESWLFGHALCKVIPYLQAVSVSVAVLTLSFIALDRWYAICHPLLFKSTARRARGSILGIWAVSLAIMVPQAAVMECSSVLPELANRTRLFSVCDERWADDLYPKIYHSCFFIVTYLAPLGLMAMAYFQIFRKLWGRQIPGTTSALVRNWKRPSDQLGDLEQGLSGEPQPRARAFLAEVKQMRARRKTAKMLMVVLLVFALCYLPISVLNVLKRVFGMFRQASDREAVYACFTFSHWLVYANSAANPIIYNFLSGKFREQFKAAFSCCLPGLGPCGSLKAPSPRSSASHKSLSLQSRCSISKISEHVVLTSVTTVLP
Briefly: FLIPR intracellular calcium assay, orexin receptor antagonistic activity (OX1). The conditions noted are these: CHO cells expressing human orexin-1 receptor; 3 nM orexin-A; normalized to on-plate reference; *n = geometric mean from n values. It counts as cell-based. On the procedure:
as §1, §2, §3, §4, §5

In the case of `CNC(=O)[C@@H](c1ccccc1)N1CCc2cc(OC)c(OC)cc2[C@@H]1CCc1ccc(C(F)(F)F)cc1` [(2R)-2-{(1S)-6,7-dimethoxy-1-[2-(4-trifluoromethyl-phenyl)-ethyl]-3,4-dihydro-1H-isoquinolin-2-yl}-N-methyl-2-phenylacetamide], the memory function entry in the assay with rat [1] is “enhance memory function”. Besides, the “activity in a rat model of post-traumatic stress disorder” value in the assay with rat [2] is “active”. In the assay on rat [3], the “alertness, characterized by active wake and locomotion” value was “decrease alertness”; the “time spent in both REM and NREM sleep” value is recorded as “dose-dependently increase”.
What is called IC50 is the concentration at which inhibition is half-maximal. For `COc1cccc(OC)c1C1SCC(=O)N1Cc1ccc(Oc2ccc(C)nn2)cc1` (stereo not shown) [Example 280, 2-(2,6-Dimethoxy-phenyl)-3-[4-(6-methyl-pyridazin-3-yloxy)-benzyl]-thiazolidin-4-one], the IC50 at human orexin-2 receptor is 0.121 µM; at human orexin-1 receptor it was 1.74 µM.
As to `CCOc1ccc(CN2C(=O)C(C)(C)SC2c2c(OC)cccc2OC)cc1` (stereo not shown) [Example 175, 2-(2,6-Dimethoxy-phenyl)-3-(4-ethoxy-benzyl)-5,5-dimethyl-thiazolidin-4-one], the results for the IC50 on human orexin-2 receptor and at human orexin-1 receptor were 0.663 µM and 0.086 µM, respectively.
Take `COc1cccc(OC)c1C1SC(C)C(=O)N1Cc1ccc2ccccc2n1` (stereo not shown) [Example 30, 2-(2,6-Dimethoxy-phenyl)-5-methyl-3-quinolin-2-ylmethyl-thiazolidin-4-one]: the IC50 came out at 0.442 µM on human orexin-2 receptor and 0.356 µM at human orexin-1 receptor.
For the compound `CCOc1ccc(CN2C(=O)CSC2c2c(OC)ccc3c2OCO3)cc1` (stereo not shown) [Example 11, 3-(4-Ethoxy-benzyl)-2-(5-methoxy-benzo[1,3]dioxol-4-yl)-thiazolidin-4-one], the IC50 on human orexin-2 receptor is 0.046 µM; at human orexin-1 receptor, 0.885 µM.
On to `COc1cccc(OC)c1C1SCC(=O)N1Cc1ccc(Oc2ccc(C)cn2)cc1` (stereo not shown) [Example 281, 2-(2,6-Dimethoxy-phenyl)-3-[4-(5-methyl-pyridin-2-yloxy)-benzyl]-thiazolidin-4-one], for which the IC50 at human orexin-2 receptor was 0.061 µM; at human orexin-1 receptor, 0.781 µM.
Regarding `COc1ccc2c(c1C1SCC(=O)N1Cc1ccc(OC(F)(F)F)cc1)OCCO2` (stereo not shown) [Example 10, 2-(6-Methoxy-2,3-dihydro-benzo[1,4]dioxin-5-yl)-3-(4-trifluoromethoxy-benzyl)-thiazolidin-4-one], the IC50 at human orexin-2 receptor came to 0.016 µM; on human orexin-1 receptor it was 0.144 µM.
Regarding `COc1ccc2c(c1C1SCC(=O)N1Cc1ccc(OC(F)(F)F)cc1)OCO2` (stereo not shown) [Example 12, 2-(5-Methoxy-benzo[1,3]dioxol-4-yl)-3-(4-trifluoromethoxy-benzyl)-thiazolidin-4-one], the IC50 came out at 0.011 µM at human orexin-2 receptor and 0.31 µM at human orexin-1 receptor.
For `COc1ccc2cccnc2c1C1SCC(=O)N1Cc1ccc(OC(F)(F)F)cc1` (stereo not shown) [Example 24, 2-(7-Methoxy-quinolin-8-yl)-3-(4-trifluoromethoxy-benzyl)-thiazolidin-4-one], the values for the IC50 on human orexin-2 receptor and on human orexin-1 receptor were 0.014 µM and 0.278 µM, respectively.
In the same order, the values of `COc1cccc(OC)c1C1SCC(=O)N1Cc1ccc(Oc2ncccc2C)cc1` (stereo not shown) [Example 285, 2-(2,6-Dimethoxy-phenyl)-3-[4-(3-methyl-pyridin-2-yloxy)-benzyl]-thiazolidin-4-one] are 0.135 µM and 1.22 µM.
For `COc1cccc(OC)c1C1SCC(=O)N1Cc1ccc(OC(F)(F)F)cc1` (stereo not shown) [Example 2, 2-(2,6-Dimethoxy-phenyl)-3-(4-trifluoromethoxy-benzyl)-thiazolidin-4-one], the IC50 on human orexin-2 receptor was 0.015 µM; on human orexin-1 receptor, 0.144 µM.
Consider `COc1cccc(OC)c1C1N(Cc2ccc(OC(F)(F)F)cc2)C(=O)CS1(=O)=O` (stereo not shown) [Example 288, 2-(2,6-Dimethoxy-phenyl)-1,1-dioxo-3-(4-trifluoromethoxy-benzyl)-thiazolidin-4-one], for which the IC50 at human orexin-2 receptor amounted to 0.006 µM; on human orexin-1 receptor, 0.166 µM.
With `COc1cccc(OC)c1C1SCC(=O)N1Cc1ccc(OC(F)F)cc1` (stereo not shown) [Example 4, 3-(4-Difluoromethoxy-benzyl)-2-(2,6-dimethoxy-phenyl)-thiazolidin-4-one], the IC50 worked out at 0.027 µM at human orexin-2 receptor and 0.377 µM on human orexin-1 receptor.
In the case of `CCOc1ccccc1C1SCC(=O)N1Cc1cccc(OC(F)(F)F)c1` (stereo not shown) [Example 81, 2-(2-Ethoxy-phenyl)-3-(3-trifluoromethoxy-benzyl)-thiazolidin-4-one], the IC50 at human orexin-2 receptor turned out to be 0.013 µM; on human orexin-1 receptor, 2.29 µM.
Regarding `CCOc1ccccc1C1SCC(=O)N1Cc1ccc(F)c(F)c1` (stereo not shown) [Example 65, 3-(3,4-Difluoro-benzyl)-2-(2-ethoxy-phenyl)-thiazolidin-4-one], the figures for the IC50 on human orexin-2 receptor and at human orexin-1 receptor were 0.021 µM and 1.43 µM, respectively.
`COc1cccc(OC)c1C1SCC(=O)N1Cc1ccc(SC(F)(F)F)cc1` (stereo not shown) [Example 139, 2-(2,6-Dimethoxy-phenyl)-3-(4-trifluoromethylsulfanyl-benzyl)thiazolidin-4-one]: the values for the IC50 at human orexin-2 receptor and at human orexin-1 receptor were 0.03 µM and 0.44 µM, respectively.
